Consider 24 compounds from patent publication EP2951180B1, “2,6,7,8 SUBSTITUTED PURINES AS HDM2 INHIBITORS” (Merck Sharp & Dohme Corp., priority 2013, dated 2014).

Molecules are shown by their SMILES. Where two headings read alike, the source gives them in different places.

By IC50 is commonly meant the midpoint of a concentration-inhibition curve.

This test has as its target T1, HDM2 (Homo sapiens, UniProt Q00987).
T1 construct: Thioredoxin (N); made in house; host or cells: E. coli strain BL21(DE3)Rosetta
As to the kind of experiment: HDM2 FRET assay (inhibition of binding of FITC labeled p53-pocket peptide to HDM2). The settings on record: read-out: FRET IC50. The text has this: Methods: An HDM2 FRET assay was developed to assess the compounds' inhibitory activity towards binding of p53 protein. […] Protein was purified using Ni-affinity chromatography, followed by size exclusion chromatography using Superdex 75 26/60 column. […] The HDM2 assay buffer contained 1x Phosphate Buffered Saline (Invitrogen, Cat#14190), 0.01% BSA (Jackson ImmunoResearch, Cat# 001-000-162), 0.01% Tween-20. In the 1X assay buffer recombinant HDM2 protein, peptide and Lumi4-Tb Cryptate-conjugate mouse anti-6xHis antibody (cisbio, Cat#Tb61HISTLB) were added and transferred to ProxiPlate PLUS (PerkinElmer, Cat#6008269), containing compounds so that final DMSO concentration is 0.1% . Final concentrations of reagents in the assay wells are 0.5 nM HDM2, 0.25nM anti HIS (Tb label) antibody and 3nM peptide. […] Ratio of em520/em495 was used to calculate %inhibition and to obtain IC50 with 4-parameter logistic equation.
IC50 DETERMINATIONS: Dose-response curves were plotted from the inhibition data, from 10 point serial dilutions of inhibitory compounds. Concentration of compound was plotted against em520/Cem495 ratio signal. To generate IC50 values, the dose-response curves were fitted to a standard sigmoidal curve and IC50 values were derived by nonlinear regression analysis.

Where [1] appears, read: 0.5 nM HDM2 (residues 17 to 125), 3nM peptide, two hour incubation at room temperature.

T1 sequence (Q00987 17-125): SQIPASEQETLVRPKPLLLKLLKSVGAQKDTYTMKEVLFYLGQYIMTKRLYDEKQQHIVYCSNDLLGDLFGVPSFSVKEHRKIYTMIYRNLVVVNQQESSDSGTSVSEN

For `C[C@@H](Nc1nc(C(=O)O)nc2nc(N3CCCCC3c3ccc(F)cc3)n(Cc3ccc(C(F)(F)F)cc3)c12)C1CCC1` (stereo partly drawn) [Example 9.117, 6-{[(1R)-1-cyclobutylethyl]amino}-8-[2-(4-fluorophenyl)piperidin-1-yl]-7-[4-(trifluoromethyl)benzyl]-7H-purine-2-carboxylic acid], the IC50 (Table 9) was 10.6 nM.

Take `C[C@H]1CC[C@H](Cn2c(C3(F)CCCCC3)nc3nc(-c4noc(=O)[nH]4)nc(-c4cncc(Cl)c4)c32)CC1` [Example 23.39, 3-{6-(5-chloropyridin-3-yl)-8-(1-fluorocyclohexyl)-7-[(trans-4-methylcyclohexyl)methyl] -7H-purin-2-yl}-1,2,4-oxadiazol-5(4H)-one]: the IC50 (Table 23) was found to be 18.1 nM.

Turning to `C[C@@H](Nc1nc(-c2noc(=O)[nH]2)nc2nc(C3(F)CCC3)n(C[C@H]3CC[C@H](C)CC3)c12)C1CCC1` [Example 22.68, 3-(6-{[(1R)-1-cyclobutylethyl]amino}-8-(1-fluorocyclobutyl)-7-[(trans-4-methylcyclohexyl)methyl] -7H-purin-2-yl)-1,2,4-oxadiazol-5(4H)-one], for the setting “Table 22”, the IC50 worked out at 16.9 nM.

For `CC(C)c1ccnc(-c2nc3nc(C(=O)O)nc(-c4ccc(F)cc4)c3n2C[C@H]2CC[C@H](C)CC2)c1` [Example 16.13, 6-(4-fluorophenyl)-7-[(trans-4-methylcyclohexyl)methyl]-8-[4-(1-methylethyl)pyridin-2-yl]-7H-purine-2-carboxylic acid], the IC50 under setting [1] was found to be 401 nM.

For `C[C@@H](Nc1nc(C(=O)O)nc2nc(C3CCCCC3c3ccccc3)n(C[C@H]3CC[C@H](C)CC3)c12)C1CCC1` (stereo partly drawn) [Example 21.17, 6-{[(1R)-1-cyclobutylethyl]amino}-7-[(trans-4-methylcyclohexyl)methyl]-8-(2-phenylcyclohexyl)-7H-purine-2-carboxylic acid], the IC50 (Table 21) came to 4.3 nM.

For `Cc1cccc(-c2nc3nc(C(=O)O)nc(N4CCCC4C(C)C)c3n2Cc2ccc(C(F)(F)F)cc2)c1` (stereo not drawn) [Example 6.85, 6-[2-(1-methylethyl)pyrrolidin-1-yl]-8-(3-methylphenyl)-7-[4-(trifluoromethyl)benzy 1]-7H-purine-2-carboxylic acid], the IC50 (Table 6) was 723 nM.

On to `C[C@H]1CC[C@H](Cn2c(SC3CCCC3)nc3nc(-c4n[nH]c(=O)o4)nc(-c4cncc(Cl)c4)c32)CC1` [Example 19.4, 5-{6-(5-chloropyridin-3-yl)-8-(cyclopentylsulfanyl)-7-[(trans-4-methylcyclohexyl)methyl]-7H-purin-2-yl}-1,3,4-oxadiazol-2(3H)-one], for which the IC50 (Table 19) stood at 3.05 nM.

Turning to `CC(C)CN1CCC(CN(C)c2nc3nc(-c4noc(=O)[nH]4)nc(N[C@H](C)C4CCC4)c3n2Cc2ccc(C(F)(F)F)cc2)C1` (stereo partly drawn) [Example 9.108, 3-(6-{[(1R)-1-cyclobutylethyl]amino}-8-(methyl{[1-(2-methylpropyl)pyrrolidin-3-yl]methyl}amino)-7-[4-(trifluoromethyl)benzyl]-7H-purin-2-yl)-1,2,4-oxadiazol-5(4H)-one], the half-inhibitory concentration (IC50) (Table 9) turned out to be 144 nM.

On to `Cc1cccc(-c2nc3nc(C(=O)O)nc(NC(C)C(C)(C)O)c3n2Cc2ccc(C(F)(F)F)cc2)c1` (stereo not drawn) [Example 6.39, 6-[(2-hydroxy-1,2-dimethylpropyl)amino]-8-(3-methylphenyl)-7-[4-(trifluoromethyl)benzyl]-7H-purine-2-carboxylic acid], for which, where the note is “Table 6”, the half-maximal inhibitory concentration (IC50) was found to be 2260 nM.

`C[C@@H](Nc1nc(-c2noc(=O)[nH]2)nc2nc(N3CCCC3CS(C)(=O)=O)n(C[C@H]3CC[C@H](C)CC3)c12)C1CCC1` (stereo partly drawn) [Example 11.153, 3-(6-{[(1R)-1-cyclobutylethyl]amino}-7-[(trans-4-methylcyclohexyl)methyl]-8-{2-[(methylsulfonyl)methyl]pyrrolidin-1-yl}-7H-purin-2-yl)-1,2,4-oxadiazol-5(4H)-one]: the IC50 (Table 11) came to 65.6 nM.

On to `CC(C)C(O)c1nc2nc(-c3noc(=O)[nH]3)nc(N[C@H](C)C3CCC3)c2n1C[C@H]1CC[C@H](C)CC1` (stereo partly drawn) [Example 22.48, 3-(6-{[(1R)-1-cyclobutylethyl]amino}-8-(1-hydroxy-2-methylpropyl)-7-[(trans-4-methylcyclohexyl)methyl] -7H-purin-2-yl)-1,2,4-oxadiazol-5(4H)-one], for which the 50% inhibitory concentration (IC50) (Table 22) was determined as 30.2 nM.

As for `Cc1ocnc1C1(c2nc3nc(-c4noc(=O)[nH]4)nc(-c4cccc(Cl)c4)c3n2C[C@H]2CC[C@H](C)CC2)CC1` [Example 23.101, 3-{6-(3-chlorophenyl)-7-[(trans-4-methylcyclohexyl)methyl]-8-[1-(5-methyl-1,3-oxazol-4-yl)cyclopropyl]-7H-purin-2-yl}-1,2,4-oxadiazol-5(4H)-one], for the setting “Table 23”, the 50% inhibitory concentration (IC50) amounted to 30.1 nM.

As to `C[C@@H](Nc1nc(-c2nnn(C)n2)nc2nc(N3CCOC[C@H]3c3ccccc3)n(C[C@H]3CC[C@H](C)CC3)c12)C1CCC1` [Example 12.11, N-[(1R)-1-cyclobutylethyl]-7-[(trans-4-methylcyclohexyl)methyl]-2-(2-methyl-2H-tetrazol-5-yl)-8-[(3R)-3-phenylmorpholin-4-yl]-7H-purin-6-amine], the 50% inhibitory concentration (IC50) under setting [1] was 32.5 nM.

On to `C[C@@H](Nc1nc(C(=O)O)nc2nc(C3=C(c4ccccc4)CCC3)n(Cc3ccc(C(F)(F)F)cc3)c12)C1CCC1` [Example 21.4, 6-{[(1R)-1-cyclobutylethyl]amino}-8-(2-phenylcyclopent-1-en-1-yl)-7-[4-(trifluoromethyl)benzyl]-7H-purine-2-carboxylic acid], for which the IC50 (Table 21) is 6.99 nM.

Turning to `C[C@@H](Nc1nc(-c2noc(=O)[nH]2)nc2nc(C(C)(F)c3ccccc3F)n(C[C@H]3CC[C@H](C)CC3)c12)C1CCC1` (single isomer, unassigned) [Example 22.65], the 50% inhibitory concentration (IC50) (Table 22) is 22.6 nM.

Regarding `C[C@@H](Nc1nc(C(=O)O)nc2nc(N3CCCCC3c3ccc(F)cc3)n(C[C@H]3CC[C@H](C)CC3)c12)C1CCC1` (stereo partly drawn) [Example 11.18, 6-{[(1R)-1-cyclobutylethyl]amino}-8-[2-(4-fluorophenyl)piperidin-1-yl]-7-[(trans-4-methylcyclohexyl)methyl]-7H-purine-2-carboxylic acid], the IC50 (Table 11) turned out to be 4.42 nM.

Turning to `C[C@@H](Nc1nc(CO)nc2nc(N3CCOC[C@H]3c3ccccc3)n(C[C@H]3CC[C@H](C)CC3)c12)C1CCC1` [Example 12.22, (6-{[(1R)-1-cyclobutylethyl]amino}-7-[(trans-4-methylcyclohexyl)methyl]-8-[(3R)-3-phenylmorpholin-4-yl]-7H-purin-2-yl)methanol], under setting [1], the IC50 is 78.6 nM.

`Cc1cccc(-c2nc3nc(C(=O)O)nc(NCCc4ccccc4)c3n2Cc2ccc(C(F)(F)F)cc2)c1` [Example 6.25, 8-(3-methylphenyl)-6-[(2-phenylethyl)amino]-7-[4-(trifluoromethyl)benzyl]-7H-purine-2-carboxylic acid]: for the setting “Table 6”, the IC50 is 5080 nM.

Regarding `C[C@H]1CC[C@H](Cn2c(N3CCOC[C@H]3c3ccccc3)nc3nc(-c4n[nH]c(=O)o4)nc(Oc4ccc(Cl)cn4)c32)CC1` [Example 25.3, 5-{6-[(5-chloropyridin-2-yl)oxy]-7-[(trans-4-methylcyclohexyl)methyl]-8-[(3R)-3-phenylmorpholin-4-yl]-7H-purin-2-yl}-1,3,4-oxadiazol-2(3H)-one], where the note is “Table 25”, the half-maximal inhibitory concentration (IC50) stood at 20.1 nM.

`C[C@@H](Nc1nc(-c2noc(=O)[nH]2)nc2nc(N3CCCCC3c3ccc(F)cc3)n(Cc3ccc(C(F)(F)F)cc3)c12)C1CCC1` (stereo partly drawn) [Example 9.112, 3-(6-{[(1R)-1-cyclobutylethyl]amino}-8-[2-(4-fluorophenyl)piperidin-1-yl]-7-[4-(trifluoromethyl)benzyl]-7H-purin-2-yl)-1,2,4-oxadiazol-5(4H)-one]: the IC50 (Table 9) was determined as 9.55 nM.

As to `Cc1cccc(-c2nc3nc(C(=O)O)nc(NC4CCC(C)CC4C)c3n2Cc2ccc(C(F)(F)F)cc2)c1` (stereo not drawn) [Example 6.34, 6-[(2,4-dimethylcyclohexyl)amino]-8-(3-methylphenyl)-7-[4-(trifluoromethyl)benzyl]-7H-purine-2-carboxylic acid], under “Table 6”, the IC50 was 1140 nM.

On to `C[C@@H](Nc1nc(-c2noc(=O)[nH]2)nc2nc(N3CC4CC4C3C(F)(F)F)n(C[C@H]3CC[C@H](C)CC3)c12)C1CCC1` (stereo partly drawn) [Example 11.152, 3-(6-{[(1R)-1-cyclobutylethyl]amino}-7-[(trans-4-methylcyclohexyl)methyl]-8-[2-(trifluoromethyl)-3-azabicyclo[3.1.0]hex-3-yl]-7H-purin-2-yl)-1,2,4-oxadiazol-5(4H)-one], for which, under “Table 11”, the IC50 is 3.09 nM.

With `CCCN(c1nc2nc(-c3noc(=O)[nH]3)nc(N[C@H](C)C3CCC3)c2n1Cc1ccc(C(F)(F)F)cc1)C1CCCCC1` [Example 9.96, 3-(6-{[(1R)-1-cyclobutylethyl]amino}-8-[cyclohexyl(propyl)amino]-7-[4-(trifluoromethyl)benzyl]-7H-purin-2-yl)-1,2,4-oxadiazol-5(4H)-one], the IC50 (Table 9) worked out at 16.2 nM.

Take `C[C@H]1CC[C@H](Cn2c(N3CCOC[C@H]3c3ccccc3)nc3nc(C(=O)O)nc(-c4cccc(Cl)c4)c32)CC1` [Example 16.22, 6-(3-chlorophenyl)-7-[(trans-4-methylcyclohexyl)methyl]-8-[(3R)-3-phenylmorpholin-4-yl]-7H-purine-2-carboxylic acid]: under setting [1], the IC50 turned out to be 0.68 nM.
